Experimental data reported in PubChem BioAssay AID330 (DTP/NCI, 2004).
Where “and” joins values, the source holds several entries; their conditions need not be identical. Equal values may be shown once. Toxic doses and inconclusive results are not listed.

Tested on: P388 leukemia ip, CD2F1 mice, survival T/C
Assay: NCI In Vivo Anticancer Drug Screen. Data for tumor model P388 Leukemia (intraperitoneal) in CD2F1 (CDF1) mice
Details: endpoint: median survival time, higher = longer survival
Outline: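 Mice carrying the transplanted tumor received test compound or vehicle. Survival was recorded in each group, and the value is the treated-group measurement divided by that of the vehicle-treated control group.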

[1] = dose: 25.0 mg/kg/injection, schedule: Q01DX009 (ip), vehicle: saline
[2] = dose: 50.0 mg/kg/injection, schedule: Q01DX009 (ip), vehicle: saline
[3] = dose: 100.0 mg/kg/injection, schedule: Q01DX009 (ip), vehicle: saline
[4] = dose: 200.0 mg/kg/injection, schedule: Q01DX009 (ip), vehicle: saline
[5] = dose: 25.0 mg/kg/injection, schedule: Q01DX005 (ip), vehicle: Klucel (hydroxypropylcellulose) (HPC)
[6] = dose: 50.0 mg/kg/injection, schedule: Q01DX005 (ip), vehicle: Klucel (hydroxypropylcellulose) (HPC)
[7] = dose: 100.0 mg/kg/injection, schedule: Q01DX005 (ip), vehicle: Klucel (hydroxypropylcellulose) (HPC)
[8] = dose: 200.0 mg/kg/injection, schedule: Q01DX005 (ip), vehicle: Klucel (hydroxypropylcellulose) (HPC)
[9] = dose: 25.0 mg/kg/injection, schedule: Q01DX009 (ip), vehicle: saline with Tween-80
[10] = dose: 50.0 mg/kg/injection, schedule: Q01DX005 (ip), vehicle: saline with Tween-80
[11] = dose: 50.0 mg/kg/injection, schedule: Q01DX009 (ip), vehicle: saline with Tween-80
[12] = dose: 100.0 mg/kg/injection, schedule: Q01DX005 (ip), vehicle: saline with Tween-80
[13] = dose: 100.0 mg/kg/injection, schedule: Q01DX009 (ip), vehicle: saline with Tween-80
[14] = dose: 200.0 mg/kg/injection, schedule: Q01DX009 (ip), vehicle: saline with Tween-80
[15] = dose: 200.0 mg/kg/injection, schedule: Q01DX005 (ip), vehicle: saline with Tween-80
[16] = dose: 12.5 mg/kg/injection, schedule: Q01DX009 (ip), vehicle: saline with Tween-80
[17] = dose: 50.0 mg/kg/injection, schedule: Q01DX009 (ip), vehicle: Klucel (hydroxypropylcellulose) (HPC)
[18] = dose: 100.0 mg/kg/injection, schedule: Q01DX009 (ip), vehicle: Klucel (hydroxypropylcellulose) (HPC)
[19] = dose: 60.0 mg/kg/injection, schedule: Q01DX005 (ip), vehicle: saline with Tween-80
[20] = dose: 120.0 mg/kg/injection, schedule: Q01DX005 (ip), vehicle: saline with Tween-80
[21] = dose: 240.0 mg/kg/injection, schedule: Q01DX005 (ip), vehicle: saline with Tween-80

In the case of `COc1ccc(C(CC(=O)O)CC(=O)N(CCCl)CCCl)cc1` (stereo unspecified), the T/C (dose: 25.0 mg/kg/injection, schedule: Q01DX001 (ip), vehicle: saline) is reported as 100 % of control and 102 % of control, the T/C (dose: 25.0 mg/kg/injection, schedule: Q04DX003 (ip), vehicle: saline with Tween-80) is reported as 101 % of control and the T/C (dose: 25.0 mg/kg/injection, schedule: Q04DX003 (ip), vehicle: saline) is reported as 102 % of control. The T/C (dose: 25.0 mg/kg/injection, schedule: Q04DX003 (ip), vehicle: suspension in saline) was 106 % of control, the T/C (dose: 50.0 mg/kg/injection, schedule: Q01DX001 (ip), vehicle: saline) was 100 % of control and 103 % of control and the T/C (dose: 50.0 mg/kg/injection, schedule: Q04DX003 (ip), vehicle: saline with Tween-80) was 102 % of control. The T/C (dose: 50.0 mg/kg/injection, schedule: Q04DX003 (ip), vehicle: saline) was 102 % of control, the T/C (dose: 50.0 mg/kg/injection, schedule: Q04DX003 (ip), vehicle: suspension in saline) was 115 % of control and the T/C (dose: 100.0 mg/kg/injection, schedule: Q01DX001 (ip), vehicle: saline) was 100 % of control and 103 % of control. The T/C (dose: 100.0 mg/kg/injection, schedule: Q04DX003 (ip), vehicle: saline with Tween-80) was 101 % of control, the T/C (dose: 100.0 mg/kg/injection, schedule: Q04DX003 (ip), vehicle: saline) was 97 % of control and the T/C (dose: 100.0 mg/kg/injection, schedule: Q04DX003 (ip), vehicle: suspension in saline) was 124 % of control. For the same compound, the T/C (dose: 200.0 mg/kg/injection, schedule: Q01DX001 (ip), vehicle: saline) was 100 % of control and 104 % of control, the T/C (dose: 200.0 mg/kg/injection, schedule: Q04DX003 (ip), vehicle: saline with Tween-80) was 101 % of control and the T/C (dose: 200.0 mg/kg/injection, schedule: Q04DX003 (ip), vehicle: saline) was 94 % of control. For the same compound, the T/C (dose: 200.0 mg/kg/injection, schedule: Q04DX003 (ip), vehicle: suspension in saline) was 157 % of control.

In the case of `Nc1cn(C2CC(O)C(CO)O2)c(=O)[nH]c1=O` (stereo unspecified), the T/C [1] is reported as 106 % of control, the T/C [2] is reported as 105 % of control and the T/C [3] is reported as 105 % of control. For the same compound, the T/C [4] was 105 % of control.

For `COc1ccc(C(=O)N2C3C4C=CC(C4)C3N2C(=O)c2ccc(OC)cc2)cc1` (stereo unspecified), the T/C [5] was 99 % of control, the T/C [6] was 92 % of control and 93 % of control and the T/C [7] was 95 % of control. For the same compound, the T/C [8] was 88 % of control.

`CN(C)/N=N/c1nc[nH]c1C(N)=O` was tested, and the T/C (dose: 12.5 mg/kg/injection, schedule: Q01DX005 (ip), vehicle: Klucel (hydroxypropylcellulose) (HPC)) was 95 % of control, the T/C [5] was 105 % of control and the T/C [9] was 123 % of control. For the same compound, the T/C [6] was 105 % of control, the T/C [10] was 106 % of control and the T/C [11] was 120 % of control. The T/C [7] was 115 % of control, the T/C [12] was 119 % of control and the T/C [13] was 120 % of control. For the same compound, the T/C (dose: 150.0 mg/kg/injection, schedule: Q01DX005 (ip), vehicle: distilled water + Tween-80) was 166 % of control, the T/C [8] was 122 % of control and the T/C [14] was 103 % of control. For the same compound, the T/C (dose: 300.0 mg/kg/injection, schedule: Q01DX005 (ip), vehicle: distilled water + Tween-80) was 156 % of control, the T/C (dose: 400.0 mg/kg/injection, schedule: Q01DX005 (ip), vehicle: saline with Tween-80) was 121 % of control and the T/C (dose: 400.0 mg/kg/injection, schedule: Q01DX009 (ip), vehicle: saline with Tween-80) was 86 % of control.

`Cc1ccc(N=C2N=C(Nc3ccc(C)cn3)c3ccccc32)nc1` was tested, and the T/C [11] was 92 % of control, the T/C [13] was 91 % of control and the T/C [14] was 96 % of control.

In the case of `O=P1(Nc2ccc(Cl)cc2)N(Cc2ccc(Cl)cc2)CCCN1Cc1ccc(Cl)cc1`, the T/C [10] is reported as 93 % of control, the T/C [12] is reported as 92 % of control and the T/C [15] is reported as 98 % of control.

With `C=CC[N+](CC=C)(CC=C)CC[N+](CC=C)(CC=C)CC=C` the T/C [16] was 97 % of control, the T/C [9] was 101 % of control and the T/C [11] was 105 % of control.

`O=C(c1ccccc1)C1OC1C(=O)c1ccccc1` (stereo unspecified) was tested, and the T/C [17] was 95 % of control, the T/C [18] was 100 % of control and the T/C (dose: 200.0 mg/kg/injection, schedule: Q01DX009 (ip), vehicle: Klucel (hydroxypropylcellulose) (HPC)) was 102 % of control.

For `CCCCCCCCCC(=O)C1C(c2ccccc2)CC(=O)C(CCCCCCCC)C1c1ccccc1` (stereo unspecified), the T/C (dose: 12.5 mg/kg/injection, schedule: Q01DX005 (ip), vehicle: saline with Tween-80) was 87 % of control, the T/C (dose: 25.0 mg/kg/injection, schedule: Q01DX005 (ip), vehicle: saline with Tween-80) was 98 % of control and the T/C [10] was 109 % of control and 93 % of control. For the same compound, the T/C [12] was 105 % of control and the T/C [15] was 115 % of control.

For `NCCSC(C[N+](=O)[O-])c1ccc2c(c1)OCO2` (stereo unspecified), the T/C [16] was 119 % of control and the T/C [9] was 124 % of control.

In the case of `CCn1c2ccccc2c2ccc(N=Cc3cccc4ccccc34)cc21`, the T/C (dose: 100.0 mg/kg/injection, schedule: Q04DX003 (ip), vehicle: saline + alcohol) is reported as 105 % of control, the T/C (dose: 200.0 mg/kg/injection, schedule: Q04DX003 (ip), vehicle: saline + alcohol) is reported as 97 % of control and the T/C (dose: 400.0 mg/kg/injection, schedule: Q04DX003 (ip), vehicle: saline + alcohol) is reported as 105 % of control.

In the case of `CC1=CC(C)(C)NC(=S)N1c1cccc2ccccc12`, the T/C [9] is reported as 116 % of control, the T/C [11] is reported as 103 % of control and the T/C [13] is reported as 110 % of control. For the same compound, the T/C [14] was 113 % of control.

With `OC1(O)CCC1(O)OCCBr` (stereo unspecified) the T/C [19] was 92 % of control and the T/C [20] was 108 % of control.

With `CCOCC(=O)C1(O)Cc2c(O)c3c(c(O)c2C(O)C1)C(=O)c1c(OC)cccc1C3=O` (stereo unspecified) the T/C (dose: 1.56 mg/kg/injection, schedule: Q01DX009 (ip), vehicle: other) was 101 % of control, the T/C (dose: 3.13 mg/kg/injection, schedule: Q01DX009 (ip), vehicle: other) was 100 % of control and the T/C (dose: 6.25 mg/kg/injection, schedule: Q01DX009 (ip), vehicle: other) was 100 % of control. For the same compound, the T/C (dose: 12.5 mg/kg/injection, schedule: Q01DX009 (ip), vehicle: other) was 95 % of control and the T/C (dose: 25.0 mg/kg/injection, schedule: Q01DX009 (ip), vehicle: other) was 103 % of control.

With `Clc1ccccc1C(Nc1ncccn1)Nc1ncccn1` the T/C [6] was 93 % of control, the T/C [7] was 93 % of control and the T/C [8] was 96 % of control.

In the case of `COC(=O)c1c2csc3ccccc3n-2c(=O)c1C`, the T/C [19] is reported as 102 % of control, the T/C [20] is reported as 101 % of control and the T/C [21] is reported as 95 % of control.

For `C/C=C/C[P+](Cc1cccc(C)c1)(c1ccccc1)c1ccccc1`, the T/C (dose: 0.78 mg/kg/injection, schedule: Q01DX009 (ip), vehicle: saline) was 101 % of control, the T/C (dose: 1.56 mg/kg/injection, schedule: Q01DX009 (ip), vehicle: saline) was 95 % of control and the T/C (dose: 3.13 mg/kg/injection, schedule: Q01DX009 (ip), vehicle: saline) was 111 % of control.

In the case of `O=C1OCc2c1cc1cc3c(cc1c2-c1ccc2c(c1)OCO2)OCO3`, the T/C (dose: 12.5 mg/kg/injection, schedule: Q01DX009 (ip), vehicle: Klucel (hydroxypropylcellulose) (HPC)) is reported as 91 % of control, the T/C (dose: 25.0 mg/kg/injection, schedule: Q01DX009 (ip), vehicle: Klucel (hydroxypropylcellulose) (HPC)) is reported as 100 % of control and the T/C [17] is reported as 100 % of control. For the same compound, the T/C [18] was 98 % of control.

In the case of `NCCCCC(C(=O)NC(Cc1ccc(O)cc1)C(=O)NC(CO)C(=O)OCc1ccc([N+](=O)[O-])cc1)N(C(=O)OCc1ccccc1)C(=O)OCc1ccccc1` (stereo unspecified), the T/C [10] is reported as 101 % of control, the T/C [12] is reported as 100 % of control and the T/C [15] is reported as 97 % of control.

For `COc1cc(CCN=Cc2cc(Cl)cc(Cl)c2O)c([N+](=O)[O-])cc1OC`, the T/C [6] was 93 % of control, the T/C [7] was 102 % of control and the T/C [8] was 111 % of control.

For `O=S(=O)(CCl)OCCCl`, the T/C [9] was 120 % of control, the T/C (dose: 75.0 mg/kg/injection, schedule: Q01DX009 (ip), vehicle: saline with Tween-80) was 170 % of control and the T/C [13] was 218 % of control.

With `CCOc1ccc(C(C[N+](=O)[O-])Sc2ccccc2N)cc1` (stereo unspecified) the T/C [19] was 97 % of control, the T/C [20] was 106 % of control and the T/C [21] was 113 % of control.

With `OCc1ncccc1O` the T/C [1] was 99 % of control and 109 % of control, the T/C [2] was 108 % of control and 100 % of control and 106 % of control and the T/C [3] was 90 % of control and 102 % of control and 104 % of control. For the same compound, the T/C [4] was 110 % of control and 111 % of control and 97 % of control.
